“And” between values parts separate entries of the source, which are not always exact repeats. Equal entries are not always repeated. Where two headings read alike, the source gives them in different places.
Key:
[1] = test system: Epithelial cells; assay: Labelling of cells using compounds (staining/uptake); type: cell-based
From the text: (§1) 2. Labelling of Cells Using Compounds Useful in Methods of the Invention

[2] = test system: U937; assay: as above; type: cell-based
From the text: as §1

[3] = test system: Jurkats; assay: as above; type: cell-based
From the text: as §1

[4] = test system: CHO; assay: as above; type: cell-based
From the text: as §1

[5] = test system: MDA-MB468; assay: as above; type: cell-based
From the text: as §1

[6] = test system: Hela; assay: as above; type: cell-based
From the text: as §1

[7] = test system: NIH 3T3; assay: as above; type: cell-based
From the text: as §1

[8] = test system: COS 7; assay: as above; type: cell-based
From the text: as §1

[9] = test system: WBCs; assay: as above; type: cell-based
From the text: as §1

[10] = test system: WBC; assay: WBC recovery rate after centrifugation (cell stabilization, Example 5); type: cell-based; details: Centrifugation: 20 min, 500×g
[11] = test system: WBC; assay: as above; type: cell-based; details: Centrifugation: 20 min, 300×g; 10 min, 1 h, 2 h incubation
Method: A) WBC Recovery Rate after Centrifugation and Cell Immobilization Using Different Molecules
Centrifugation characteristics: 10 min, 300×g.
B) WBC Recovery Rate after Centrifugation Using Different Compounds—Different Points of Time
Centrifugation characteristics: 10 min, 300×g. A: Choleseryl-TEG-Cholesteryl-TEG-(SpacerC18)7-Fluos-Biotin-TEG.
C) WBC Recovery Rate after Centrifugation—Different Experimenters
Centrifugation characteristics: 10 min, 300×g. Molecule: Cholesteryl-TEG-Cholesteryl-TEG-(SpacerC18)7-Fluos-Biotin-TEG.
D) WBC Recovery Rate after Centrifugation—Different Points of Time and Centrifugation Settings
Centrifugation characteristics: 20 min, 300×g.

[12] = test system: WBCs; assay: Immobilization of cells: recovery rate of cells on SA (streptavidin) plate or untreated plate (Example 3); type: cell-based
Method: The following applies for modular description of the compounds below: X=hydrophobic moiety, […]=fluorescein In the following experiment, the recovery rate of cells was determined.

[13] = test system: white blood cells (WBCs)
Method: In particular, the performance of a single cholesterol-molecule and different dual-linker molecules (i.e. containing two hydrophobic moieties) was tested. In detail, immobilization of white blood cells (WBCs) on a Streptavidin-coated surface using different linker molecules was tested on a 12-well plate: 300 000 WBCs/well. This was followed by the measurement of the cell recovery rate after immobilization and washing of the cells using the Cellavista instrument (10× Nuclei Operator s9s5).

[14] = Sample 1, first block (concentration not given), 300 000 WBCs/well
[15] = Sample 2, compound concentration: 100 pmol/10e6 WBCs
[16] = Sample 2, compound concentration: 1 nmol/10e6 WBCs

Compound | Labelling (staining/uptake) of cells [1] | Labelling (staining/uptake) of cells [2] | Labelling (staining/uptake) of cells [3] | Labelling (staining/uptake) of cells [4] | Labelling (staining/uptake) of cells [5] | Labelling (staining/uptake) of cells [6] | Labelling (staining/uptake) of cells [7] | Labelling (staining/uptake) of cells [8] | Labelling (staining/uptake) of cells [9] | also measured
CCCCCCCCCCCCCCCCCCCCCC[N+]1=C(/C=C/C=C2/N(CCCCCCCCCCCCCC)c3ccccc3C2(C)C)C(C)(C)c2ccccc21.[I-] [PKH26] | ✓ not all | ✓ | ✓ | ✓ | ✓ | ✓* | ✓ | ✓ |  | 
5′-alphaTocopherolTEG-PEG2000-Fluos-3′ [29.891131] | ✓ | ✓ |  |  | ✓ |  |  |  | ✓ not all | 
CCCCCCCCCCCCC/C=C/[C@@H](O)[C@H](COP(=O)([O-])OCC[N+](C)(C)C)NC(=O)CCCCc1ccc2n1[B-](F)(F)[N+]1=C(C)C=C(C)C1=C2 [Sphingomyelin, N-(4,4-difluoro-5,7-dimethyl-4-bora-3a,4a-diaza-s-indacene-3-pentanoyl)sphingosyl phosphocholine] | ✓ |  |  | x very weak |  | ✓ |  |  | (x)- very bad | 
CCCCCCCCCCCCCCCCCCN1C(=CC=CC2=[N+](CCCCCCCCCCCCCCCCCC)c3ccccc3C2(C)C)C(C)(C)c2ccccc21.[O-][Cl+3]([O-])([O-])[O-] [1,1′-Dioctadecyl-3,3,3′,3′-tetramethylindocarbocyanin perchlorate] | ✓ | ✓ | ✓ | ✓ | ✓ | ✓ | ✓* | ✓ | ✓ not all | 
CCCCC/C=C\C/C=C\CCCCCCCCN1C(=CC=CC2=[N+](CCCCCCCC/C=C\C/C=C\CCCCC)c3ccccc3C2(C)C)C(C)(C)c2ccccc21.[O-][Cl+3]([O-])([O-])[O-] [Linol, 1,1′-dilinoleyl-3,3,3′,3′-tetramethylindocarbocyanine perchlorate] | ✓ | ✓ | ✓ | ✓ | ✓ | ✓ | ✓ | ✓ |  | 
5′-CholesterylTEG-CholesterylTEG-(SpacerC18)7-dT(Determ. of concentration)-BiotinTEG-3′ [compound 1234] |  |  |  |  |  |  |  |  |  | WBC recovery rate after centrifugation, performance ranking [10]: best performance; WBC recovery rate after centrifugation, performance ranking [11]: best performance; Recovery Rate ([12]; 10 pmol/10e6 cells): 9.6%; Recovery Rate ([12]; 100 pmol/10e6 cells): 18.8%; Recovery Rate ([12]; 300 pmol/10e6 cells): 26.8%; Recovery Rate ([12]; 500 pmol/10e6 cells): 24.9%; Recovery Rate ([12]; 10 nmol/10e6 cells): 99.7%; Recovery Rate ([12]; WBCs, 350 pmol/10e6 cells, 0.000003% Tween21): 13.0% and 25.0%; Recovery Rate ([12]; WBCs, 350 pmol/10e6 cells, 0.00001% Tween20): 14.0% and 23.0%; Recovery Rate ([12]; WBCs, 350 pmol/10e6 cells, 0.00003% Tween20): 12.0% and 20.0%; Recovery Rate ([12]; WBCs, 350 pmol/10e6 cells, 0.00003% Tween22): 22.0% and 36.0%; Recovery Rate ([12]; WBCs, 350 pmol/10e6 cells, 0.0001% Tween21): 22.0% and 28.0%; Recovery Rate ([12]; WBCs, 350 pmol/10e6 cells, 0.0003% Tween20): 12.0% and 18.0%; Recovery Rate ([12]; WBCs, 350 pmol/10e6 cells, 0.001% Tween20): 10.0% and 15.0%; Recovery Rate ([12]; WBCs, 350 pmol/10e6 cells, 1:1 diluted): 22.0% and 25.0%; Recovery Rate ([12]; WBCs, 350 pmol/10e6 cells, US + 10′ 98° C.): 27.0% and 23.0%; Recovery Rate ([12]; WBCs, 350 pmol/10e6 cells, not evaporated, VIVA Spin): 18.0% and 19.0%; Recovery Rate ([12]; WBCs, 350 pmol/10e6 cells, untreated): 17.0% and 13.0%; Recovery Rate ([12]; WBCs, 1000 pmol/10e6 cells): 35.4%; Recovery Rate ([12]; WBCs, 1000 pmol/10e6 cells, not evaporated, VIVA Spin): 42.0% and 45.0%
5′-Cholesteryl-TEG-PEG2000-Fluos-3′ [29.891132] | ✓ | ✓ |  |  | ✓ |  |  |  | ✓ not all | 
3′-(Myristic acid)2-PEG2000-dT-Biotin-TEG-5′ INVERS [compound 1255] |  |  |  |  |  |  |  |  |  | WBC recovery rate after centrifugation, performance ranking [10]: followed by molecule 1255 and 1254; WBC recovery rate after centrifugation, performance ranking [11]: followed by compound 1255 and 1254
5′-(Cholesteryl-TEG)2-Spacer C18-Fluos-Biotin_TEG-3′ INVERS [29.891254] |  |  |  |  |  |  |  |  |  | Recovery Rate [13, 14]: 57.63%; cells counted per well [13, 14]: 157660 and 190148 and 170850; Recovery Rate ([13]; Sample 1, compound concentration: 1 nmol/10e6 WBCs): 82.19%; cells counted per well ([13]; Sample 1, compound concentration: 1 nmol/10e6 WBCs, 300 000 WBCs/well): 244649 and 234262 and 260760; Mean (cells counted per well) [13, 15]: 197067.00; Recovery Rate [13, 15]: 65.69%; cells counted per well ([13]; Sample 2, compound concentration: 100 pmol/10e6 WBCs, 300 000 WBCs/well): 205917 and 185100 and 200184; Mean (cells counted per well) [13, 16]: 245376.00; Recovery Rate [13, 16]: 81.79%; cells counted per well ([13]; Sample 2, compound concentration: 1 nmol/10e6 WBCs, 300 000 WBCs/well): 247428 and 244396 and 244304; WBC recovery rate after centrifugation, performance ranking [10]: followed by molecule 1255 and 1254; WBC recovery rate after centrifugation, performance ranking [11]: followed by compound 1255 and 1254; Recovery Rate ([12]; 10 pmol/10e6 cells): 40.30%; Recovery Rate ([12]; 100 pmol/10e6 cells): 64.60% and 57.63% and 65.69% and 70.07% and 81.28%; Recovery Rate ([12]; 1 nmol/10e6 cells): 92.50% and 82.19% and 81.79% and 74.68%; Recovery Rate ([12]; 10 nmol/10e6 cells): 83.60%
5′-CholesterylTEG-CholesterylTEG-PEG2000-Fluos-3′ [29.891133] | ✓ | ✓ | ✓ | ✓ | ✓ | ✓ | ✓ | ✓ |  | 
CCCCCCCCCCCCCCCC(=O)OC[C@H](COP(=O)(O)OCCNC(=O)CCc1ccc2n1[B-](F)(F)[N+]1=C(C)C=C(C)C1=C2)OC(=O)CCCCCCCCCCCCCCC.CCN(CC)CC [Phosphatidylethanolamine, N-(4,4-difluoro-5,7-dimethyl-4-bora-3a,4a-diaza-s-indacene-3-propionyl)-1,2-dihexadecanoyl-sn-glycero-3-phosphoethanolamine, triethylammonium salt] |  |  |  |  |  | x/✓ very weak |  |  |  | 
